In PubChem BioAssay (NCI) one finds TGI data, which are given here for four compounds.

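These data come from cells grown in 96-well plates and exposed to compound for 48 hours at five concentrations. TGI marks complete inhibition of growth.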

The first assay relates to 786-0 renal. Description: NCI tumour cell line growth inhibition, 48 h.
Consider `Cc1ccc(S(=O)(=O)N/N=C2\CCCCC23CCC(=O)NC3)cc1` (stereo unspecified), for which the TGI was > 100 µM.

With `CCCCCCCCCCCCCP(=O)(O)O`, the TGI was > 100 µM.

The next assay has as its system A498 renal. In words: NCI tumour cell line growth inhibition, 48 h.
For `Cc1ccc(S(=O)(=O)N/N=C2\CCCCC23CCC(=O)NC3)cc1` (stereo unspecified), the TGI is > 100 µM.

Compound `CN(C)CCNC(=O)c1cccc2c(=O)c3ccccc3oc12` displayed a TGI of 52.8 µM.

Take `CCCCCCCCCCCCCP(=O)(O)O`: the TGI is > 100 µM.

On to `O=C(O)CCC1CCc2cccc(O)c2C1=O` (stereo unspecified), for which the TGI is > 100 µM.

The test system of a further assay is A549 NSCLC. Description: NCI tumour cell line growth inhibition, 48 h.
In the case of `Cc1ccc(S(=O)(=O)N/N=C2\CCCCC23CCC(=O)NC3)cc1` (stereo unspecified), the TGI is > 100 µM.

For the compound `CN(C)CCNC(=O)c1cccc2c(=O)c3ccccc3oc12`, the TGI is > 100 µM.

Consider `CCCCCCCCCCCCCP(=O)(O)O`, for which the TGI is > 100 µM.

Another assay deals with ACHN renal. Description: NCI tumour cell line growth inhibition, 48 h.
Take `Cc1ccc(S(=O)(=O)N/N=C2\CCCCC23CCC(=O)NC3)cc1` (stereo unspecified): the TGI is > 100 µM.

Take `CCCCCCCCCCCCCP(=O)(O)O`: the TGI is > 100 µM.

Take `O=C(O)CCC1CCc2cccc(O)c2C1=O` (stereo unspecified): the TGI is > 100 µM.

Another assay concerns CAKI-1 renal. In words: NCI tumour cell line growth inhibition, 48 h.
For `Cc1ccc(S(=O)(=O)N/N=C2\CCCCC23CCC(=O)NC3)cc1` (stereo unspecified), the TGI is > 100 µM.

In another assay the test system is CCRF-CEM leukemia. Description: NCI tumour cell line growth inhibition, 48 h.
In the case of `Cc1ccc(S(=O)(=O)N/N=C2\CCCCC23CCC(=O)NC3)cc1` (stereo unspecified), the TGI is > 100 µM.

Regarding `CN(C)CCNC(=O)c1cccc2c(=O)c3ccccc3oc12`, the TGI is > 100 µM.

On to `CCCCCCCCCCCCCP(=O)(O)O`, for which the TGI is > 100 µM.

For `O=C(O)CCC1CCc2cccc(O)c2C1=O` (stereo unspecified), the TGI is > 100 µM.

The test system of the next assay is COLO 205 colon. In words: NCI tumour cell line growth inhibition, 48 h.
As to `Cc1ccc(S(=O)(=O)N/N=C2\CCCCC23CCC(=O)NC3)cc1` (stereo unspecified), the TGI is > 100 µM.

`CN(C)CCNC(=O)c1cccc2c(=O)c3ccccc3oc12` registered a TGI of 19.4 µM.

For `CCCCCCCCCCCCCP(=O)(O)O`, the TGI is > 100 µM.

Consider `O=C(O)CCC1CCc2cccc(O)c2C1=O` (stereo unspecified), for which the TGI is > 100 µM.

Another assay deals with DLD-1 colon. Description: NCI tumour cell line growth inhibition, 48 h.
For `Cc1ccc(S(=O)(=O)N/N=C2\CCCCC23CCC(=O)NC3)cc1` (stereo unspecified), the TGI was > 100 µM.

Take `CN(C)CCNC(=O)c1cccc2c(=O)c3ccccc3oc12`: the TGI is > 100 µM.

`CCCCCCCCCCCCCP(=O)(O)O`: the TGI is > 100 µM.

Another assay deals with DMS 114 small cell lung. Description: NCI tumour cell line growth inhibition, 48 h.
Turning to `Cc1ccc(S(=O)(=O)N/N=C2\CCCCC23CCC(=O)NC3)cc1` (stereo unspecified), the TGI is > 100 µM.

On to `CN(C)CCNC(=O)c1cccc2c(=O)c3ccccc3oc12`, for which the TGI is > 69.8 µM.

For the compound `CCCCCCCCCCCCCP(=O)(O)O`, the TGI is > 100 µM.

Consider `O=C(O)CCC1CCc2cccc(O)c2C1=O` (stereo unspecified), for which the TGI is > 100 µM.

For another assay, the system named is DMS 273 small cell lung. Description: NCI tumour cell line growth inhibition, 48 h.
For the compound `Cc1ccc(S(=O)(=O)N/N=C2\CCCCC23CCC(=O)NC3)cc1` (stereo unspecified), the TGI is > 100 µM.

On to `CN(C)CCNC(=O)c1cccc2c(=O)c3ccccc3oc12`, for which the TGI was > 91.2 µM.

As to `CCCCCCCCCCCCCP(=O)(O)O`, the TGI is > 100 µM.

For `O=C(O)CCC1CCc2cccc(O)c2C1=O` (stereo unspecified), the TGI is > 100 µM.

The subject of another assay is EKVX NSCLC. In words: NCI tumour cell line growth inhibition, 48 h.
On to `CN(C)CCNC(=O)c1cccc2c(=O)c3ccccc3oc12`, for which the TGI is > 86.9 µM.

For the compound `CCCCCCCCCCCCCP(=O)(O)O`, the TGI was > 100 µM.

A further assay concerns HCC-2998 colon. In words: NCI tumour cell line growth inhibition, 48 h.
Take `Cc1ccc(S(=O)(=O)N/N=C2\CCCCC23CCC(=O)NC3)cc1` (stereo unspecified): the TGI was > 100 µM.

Take `CN(C)CCNC(=O)c1cccc2c(=O)c3ccccc3oc12`: the TGI is > 100 µM.

Consider `CCCCCCCCCCCCCP(=O)(O)O`, for which the TGI is > 100 µM.

The subject of another assay is HCT-116 colon. Description: NCI tumour cell line growth inhibition, 48 h.
With `Cc1ccc(S(=O)(=O)N/N=C2\CCCCC23CCC(=O)NC3)cc1` (stereo unspecified), the TGI was > 100 µM.

Turning to `CN(C)CCNC(=O)c1cccc2c(=O)c3ccccc3oc12`, the TGI was > 100 µM.

In the case of `CCCCCCCCCCCCCP(=O)(O)O`, the TGI was > 100 µM.

For the next assay, the system named is HCT-15 colon. Description: NCI tumour cell line growth inhibition, 48 h.
`Cc1ccc(S(=O)(=O)N/N=C2\CCCCC23CCC(=O)NC3)cc1` (stereo unspecified): the TGI is > 100 µM.

`CN(C)CCNC(=O)c1cccc2c(=O)c3ccccc3oc12`: the TGI is > 100 µM.

On to `CCCCCCCCCCCCCP(=O)(O)O`, for which the TGI is > 100 µM.

On to `O=C(O)CCC1CCc2cccc(O)c2C1=O` (stereo unspecified), for which the TGI was > 100 µM.

The next assay has as its system HL-60(TB) leukemia. Description: NCI tumour cell line growth inhibition, 48 h.
For the compound `Cc1ccc(S(=O)(=O)N/N=C2\CCCCC23CCC(=O)NC3)cc1` (stereo unspecified), the TGI was > 100 µM.

As for `CN(C)CCNC(=O)c1cccc2c(=O)c3ccccc3oc12`, the TGI is > 90.6 µM.

For the compound `CCCCCCCCCCCCCP(=O)(O)O`, the TGI is > 100 µM.

Take `O=C(O)CCC1CCc2cccc(O)c2C1=O` (stereo unspecified): the TGI is > 100 µM.

Another assay concerns HOP-18 NSCLC. Description: NCI tumour cell line growth inhibition, 48 h.
Turning to `Cc1ccc(S(=O)(=O)N/N=C2\CCCCC23CCC(=O)NC3)cc1` (stereo unspecified), the TGI was > 100 µM.

Take `CN(C)CCNC(=O)c1cccc2c(=O)c3ccccc3oc12`: the TGI was > 100 µM.

Turning to `CCCCCCCCCCCCCP(=O)(O)O`, the TGI was > 100 µM.

For the compound `O=C(O)CCC1CCc2cccc(O)c2C1=O` (stereo unspecified), the TGI was > 100 µM.

The next assay deals with HOP-62 NSCLC. Description: NCI tumour cell line growth inhibition, 48 h.
Consider `Cc1ccc(S(=O)(=O)N/N=C2\CCCCC23CCC(=O)NC3)cc1` (stereo unspecified), for which the TGI was > 100 µM.

Compound `CN(C)CCNC(=O)c1cccc2c(=O)c3ccccc3oc12` came in with a TGI of 97.5 µM.

For the compound `CCCCCCCCCCCCCP(=O)(O)O`, the TGI is > 100 µM.

For another assay, the system named is HOP-92 NSCLC. In words: NCI tumour cell line growth inhibition, 48 h.
As to `CN(C)CCNC(=O)c1cccc2c(=O)c3ccccc3oc12`, the TGI came out at 60.1 µM.

For the compound `CCCCCCCCCCCCCP(=O)(O)O`, the TGI was > 100 µM.

Take `O=C(O)CCC1CCc2cccc(O)c2C1=O` (stereo unspecified): the TGI was > 100 µM.

In another assay the test system is HT29 colon. Description: NCI tumour cell line growth inhibition, 48 h.
As for `CN(C)CCNC(=O)c1cccc2c(=O)c3ccccc3oc12`, the TGI is 98.7 µM.

Take `CCCCCCCCCCCCCP(=O)(O)O`: the TGI was > 100 µM.

For the next assay, the system named is IGROV1 ovarian. In words: NCI tumour cell line growth inhibition, 48 h.
Take `Cc1ccc(S(=O)(=O)N/N=C2\CCCCC23CCC(=O)NC3)cc1` (stereo unspecified): the TGI was > 100 µM.

As for `CN(C)CCNC(=O)c1cccc2c(=O)c3ccccc3oc12`, the TGI was > 100 µM.

Consider `CCCCCCCCCCCCCP(=O)(O)O`, for which the TGI was > 100 µM.

Regarding `O=C(O)CCC1CCc2cccc(O)c2C1=O` (stereo unspecified), the TGI is > 100 µM.

The next assay concerns K-562 leukemia. In words: NCI tumour cell line growth inhibition, 48 h.
With `Cc1ccc(S(=O)(=O)N/N=C2\CCCCC23CCC(=O)NC3)cc1` (stereo unspecified), the TGI is > 100 µM.

`CN(C)CCNC(=O)c1cccc2c(=O)c3ccccc3oc12`: the TGI is > 100 µM.

`O=C(O)CCC1CCc2cccc(O)c2C1=O` (stereo unspecified): the TGI is > 100 µM.

Another assay concerns KM12 colon. In words: NCI tumour cell line growth inhibition, 48 h.
Regarding `Cc1ccc(S(=O)(=O)N/N=C2\CCCCC23CCC(=O)NC3)cc1` (stereo unspecified), the TGI was > 100 µM.

Regarding `CN(C)CCNC(=O)c1cccc2c(=O)c3ccccc3oc12`, the TGI was > 100 µM.

Regarding `CCCCCCCCCCCCCP(=O)(O)O`, the TGI is > 100 µM.

The next assay relates to KM20L2 colon. Description: NCI tumour cell line growth inhibition, 48 h.
Take `Cc1ccc(S(=O)(=O)N/N=C2\CCCCC23CCC(=O)NC3)cc1` (stereo unspecified): the TGI was > 100 µM.

As to `CN(C)CCNC(=O)c1cccc2c(=O)c3ccccc3oc12`, the TGI is > 100 µM.

In the case of `CCCCCCCCCCCCCP(=O)(O)O`, the TGI is > 100 µM.

Consider `O=C(O)CCC1CCc2cccc(O)c2C1=O` (stereo unspecified), for which the TGI is > 100 µM.

A further assay relates to LOX IMVI melanoma. Description: NCI tumour cell line growth inhibition, 48 h.
On to `CN(C)CCNC(=O)c1cccc2c(=O)c3ccccc3oc12`, for which the TGI came to 43.4 µM.

`CCCCCCCCCCCCCP(=O)(O)O`: the TGI was > 100 µM.

Take `O=C(O)CCC1CCc2cccc(O)c2C1=O` (stereo unspecified): the TGI was > 100 µM.

A further assay relates to LXFL 529 NSCLC. In words: NCI tumour cell line growth inhibition, 48 h.
For the compound `Cc1ccc(S(=O)(=O)N/N=C2\CCCCC23CCC(=O)NC3)cc1` (stereo unspecified), the TGI is > 100 µM.

Take `CCCCCCCCCCCCCP(=O)(O)O`: the TGI is > 100 µM.

Take `O=C(O)CCC1CCc2cccc(O)c2C1=O` (stereo unspecified): the TGI was > 100 µM.

Another assay relates to M14 melanoma. In words: NCI tumour cell line growth inhibition, 48 h.
As for `Cc1ccc(S(=O)(=O)N/N=C2\CCCCC23CCC(=O)NC3)cc1` (stereo unspecified), the TGI is > 100 µM.

As for `CCCCCCCCCCCCCP(=O)(O)O`, the TGI was > 100 µM.

Consider `O=C(O)CCC1CCc2cccc(O)c2C1=O` (stereo unspecified), for which the TGI was > 100 µM.

The next assay has as its system M19-MEL melanoma. In words: NCI tumour cell line growth inhibition, 48 h.
In the case of `Cc1ccc(S(=O)(=O)N/N=C2\CCCCC23CCC(=O)NC3)cc1` (stereo unspecified), the TGI is > 100 µM.

`CN(C)CCNC(=O)c1cccc2c(=O)c3ccccc3oc12` yielded a TGI of 56.7 µM.

As to `CCCCCCCCCCCCCP(=O)(O)O`, the TGI was > 100 µM.

Consider `O=C(O)CCC1CCc2cccc(O)c2C1=O` (stereo unspecified), for which the TGI was > 100 µM.

The test system of a further assay is MALME-3M melanoma. In words: NCI tumour cell line growth inhibition, 48 h.
Take `Cc1ccc(S(=O)(=O)N/N=C2\CCCCC23CCC(=O)NC3)cc1` (stereo unspecified): the TGI was > 100 µM.

`CN(C)CCNC(=O)c1cccc2c(=O)c3ccccc3oc12` registered a TGI of 64.3 µM.

As for `CCCCCCCCCCCCCP(=O)(O)O`, the TGI is > 100 µM.

In the next assay the test system is MCF7 breast. In words: NCI tumour cell line growth inhibition, 48 h.
Compound `CN(C)CCNC(=O)c1cccc2c(=O)c3ccccc3oc12` yielded a TGI of 74 µM.

Another assay deals with MOLT-4 leukemia. Description: NCI tumour cell line growth inhibition, 48 h.
On to `Cc1ccc(S(=O)(=O)N/N=C2\CCCCC23CCC(=O)NC3)cc1` (stereo unspecified), for which the TGI was > 100 µM.

On to `CN(C)CCNC(=O)c1cccc2c(=O)c3ccccc3oc12`, for which the TGI was > 100 µM.

With `O=C(O)CCC1CCc2cccc(O)c2C1=O` (stereo unspecified), the TGI was > 100 µM.

For another assay, the system named is NCI-H226 lung. Description: NCI tumour cell line growth inhibition, 48 h.
Regarding `Cc1ccc(S(=O)(=O)N/N=C2\CCCCC23CCC(=O)NC3)cc1` (stereo unspecified), the TGI was > 100 µM.

`CN(C)CCNC(=O)c1cccc2c(=O)c3ccccc3oc12` showed a TGI of 76.5 µM.
